# Data: ChEMBL document CHEMBL3885881, “DrugMatrix”
# Species: Rattus norvegicus
# Experiment: DrugMatrix - Regimen: Daily Repeat
# Assay type: toxicity, organism-based, Sprague-Dawley
# Set-up: regimen Daily Repeat, gender Male, age 6-8 weeks
# Details: in vivo, po, […], route oral GAVAGE, dose 1.2 mg/Kg, dose level Low; for ABSOLUTE BASOPHIL / ABSOLUTE EOSINOPHIL / ABSOLUTE LYMPHOCYTE / ABSOLUTE MONOCYTE / ABSOLUTE SEGMENTED NEUTROPHIL / BASOPHIL / EOSINOPHIL / ERYTHROCYTE COUNT / HEMATOCRIT / HEMOGLOBIN / LEUKOCYTE COUNT / LYMPHOCYTE / MEAN CORPUSCULAR HEMOGLOBIN / MEAN CORPUSCULAR HEMOGLOBIN CONCENTRATION / MEAN CORPUSCULAR VOLUME / MONOCYTE / NEUTROPHIL / NUCLEATED RED BLOOD CELLS / PLATELET COUNT: tissue Blood; for ALANINE AMINOTRANSFERASE / ALBUMIN / ALKALINE PHOSPHATASE / ASPARTATE AMINOTRANSFERASE / BLOOD UREA NITROGEN / CARBON DIOXIDE / CHLORIDE / CHOLESTEROL / CREATINE PHOSPHOKINASE / CREATININE / GLUCOSE / LACTATE DEHYDROGENASE / LIPASE / PHOSPHORUS / POTASSIUM / SODIUM / TOTAL BILIRUBIN / TOTAL PROTEIN / URIC ACID: tissue Plasma
smiles,measurement,setting,value
CNC(=C[N+](=O)[O-])NCCSCc1csc(CN(C)C)n1 [NIZATIDINE],ABSOLUTE BASOPHIL,"72 h, time 3 day",0 CELLS/uL
same,ABSOLUTE EOSINOPHIL,"72 h, time 3 day",34 CELLS/uL
same,ABSOLUTE LYMPHOCYTE,"72 h, time 3 day",10569 CELLS/uL
same,ABSOLUTE MONOCYTE,"72 h, time 3 day",72 CELLS/uL
same,ABSOLUTE SEGMENTED NEUTROPHIL,"72 h, time 3 day",2425 CELLS/uL
same,BASOPHIL,"72 h, time 3 day",0%
same,EOSINOPHIL,"72 h, time 3 day",0.33%
same,ERYTHROCYTE COUNT,"72 h, time 3 day",5.9 x10E6/uL
same,HEMATOCRIT,"72 h, time 3 day",35.07%
same,HEMOGLOBIN,"72 h, time 3 day",13.63 G/DL
same,LEUKOCYTE COUNT,"72 h, time 3 day",13.1 x10E3/uL
same,LYMPHOCYTE,"72 h, time 3 day",80.33%
same,MEAN CORPUSCULAR HEMOGLOBIN,"72 h, time 3 day",23.13 pg
same,MEAN CORPUSCULAR HEMOGLOBIN CONCENTRATION,"72 h, time 3 day",38.87 G/DL
same,MEAN CORPUSCULAR VOLUME,"72 h, time 3 day",59.5 fL
same,MONOCYTE,"72 h, time 3 day",0.67%
same,NEUTROPHIL,"72 h, time 3 day",18.67%
same,NUCLEATED RED BLOOD CELLS,"72 h, time 3 day",0.67 /100WBC
same,PLATELET COUNT,"72 h, time 3 day",1288.67 x10E3/uL
same,ALANINE AMINOTRANSFERASE,"72 h, time 3 day",58.33 u/L
same,ALBUMIN,"72 h, time 3 day",4.07 G/DL
same,ALKALINE PHOSPHATASE,"72 h, time 3 day",348.67 u/L
same,ASPARTATE AMINOTRANSFERASE,"72 h, time 3 day",87.67 u/L
same,BLOOD UREA NITROGEN,"72 h, time 3 day",12.67 mg/dL
same,CARBON DIOXIDE,"72 h, time 3 day",26 mmol/L
same,CHLORIDE,"72 h, time 3 day",101 MEQ/L
same,CHOLESTEROL,"72 h, time 3 day",72.67 mg/dL
same,CREATINE PHOSPHOKINASE,"72 h, time 3 day",343.33 u/L
same,CREATININE,"72 h, time 3 day",0.16 mg/dL
same,GLUCOSE,"72 h, time 3 day",162.67 mg/dL
same,LACTATE DEHYDROGENASE,"72 h, time 3 day",208 u/L
same,LIPASE,"72 h, time 3 day",10 u/L
same,PHOSPHORUS,"72 h, time 3 day",13.27 mg/dL
same,POTASSIUM,"72 h, time 3 day",7.68 MEQ/L
same,SODIUM,"72 h, time 3 day",143.37 MEQ/L
same,TOTAL BILIRUBIN,"72 h, time 3 day",0.2 mg/dL
same,TOTAL PROTEIN,"72 h, time 3 day",5.6 G/DL
same,URIC ACID,"72 h, time 3 day",2 mg/dL
same,ABSOLUTE BASOPHIL,"120 h, time 5 day",0 CELLS/uL
same,ABSOLUTE EOSINOPHIL,"120 h, time 5 day",0 CELLS/uL
same,ABSOLUTE LYMPHOCYTE,"120 h, time 5 day",14620.33 CELLS/uL
same,ABSOLUTE MONOCYTE,"120 h, time 5 day",0 CELLS/uL
same,ABSOLUTE SEGMENTED NEUTROPHIL,"120 h, time 5 day",2246.33 CELLS/uL
same,BASOPHIL,"120 h, time 5 day",0%
same,EOSINOPHIL,"120 h, time 5 day",0%
same,ERYTHROCYTE COUNT,"120 h, time 5 day",5.78 x10E6/uL
same,HEMATOCRIT,"120 h, time 5 day",35.77%
same,HEMOGLOBIN,"120 h, time 5 day",14.27 G/DL
same,LEUKOCYTE COUNT,"120 h, time 5 day",16.87 x10E3/uL
same,LYMPHOCYTE,"120 h, time 5 day",87%
same,MEAN CORPUSCULAR HEMOGLOBIN,"120 h, time 5 day",24.63 pg
same,MEAN CORPUSCULAR HEMOGLOBIN CONCENTRATION,"120 h, time 5 day",39.9 G/DL
same,MEAN CORPUSCULAR VOLUME,"120 h, time 5 day",61.87 fL
same,MONOCYTE,"120 h, time 5 day",0%
same,NEUTROPHIL,"120 h, time 5 day",13%
same,NUCLEATED RED BLOOD CELLS,"120 h, time 5 day",0 /100WBC
same,PLATELET COUNT,"120 h, time 5 day",1147.67 x10E3/uL
same,ALANINE AMINOTRANSFERASE,"120 h, time 5 day",54.33 u/L
same,ALBUMIN,"120 h, time 5 day",4.27 G/DL
same,ALKALINE PHOSPHATASE,"120 h, time 5 day",454.67 u/L
same,ASPARTATE AMINOTRANSFERASE,"120 h, time 5 day",86.67 u/L
same,BLOOD UREA NITROGEN,"120 h, time 5 day",11.67 mg/dL
same,CARBON DIOXIDE,"120 h, time 5 day",27 mmol/L
same,CHLORIDE,"120 h, time 5 day",101.33 MEQ/L
same,CHOLESTEROL,"120 h, time 5 day",63.33 mg/dL
same,CREATINE PHOSPHOKINASE,"120 h, time 5 day",239.33 u/L
same,CREATININE,"120 h, time 5 day",0.2 mg/dL
same,GLUCOSE,"120 h, time 5 day",154 mg/dL
same,LACTATE DEHYDROGENASE,"120 h, time 5 day",176.67 u/L
same,LIPASE,"120 h, time 5 day",10 u/L
same,PHOSPHORUS,"120 h, time 5 day",11.33 mg/dL
same,POTASSIUM,"120 h, time 5 day",6.56 MEQ/L
same,SODIUM,"120 h, time 5 day",143.2 MEQ/L
same,TOTAL BILIRUBIN,"120 h, time 5 day",0.17 mg/dL
same,TOTAL PROTEIN,"120 h, time 5 day",5.87 G/DL
same,URIC ACID,"120 h, time 5 day",1.7 mg/dL
